Patent US10280150B2 (FORMA TM2, Inc., priority 2014, dated 2019)
Like-named read-outs stand apart in the source and are kept apart here.

Tests used:
[1] = biological target: IDH1-R132H recombinant protein (Homo sapiens (Human), UniProt O75874, R132H); test: IDH1-R132H enzymatic assay (inhibition of NADPH consumption, diaphorase/resazurin readout); assay type: biochemical; details: read-out: Enzyme IDH1 R132H IC50 (Range)
Description: (§1) Assays were performed in a 384-well black plate. An aliquot of 250 nL of compound was incubated with 10 μL of 30 nM IDH1-R132H or 10 nM IDH1-R132C recombinant protein in assay buffer (50 mM Tris pH=7.5, 150 mM NaCl, 5 mM MgCl2, 0.1% (w/v) Bovine Serum Albumin, and 0.01% Triton X-100) in each well at 25° C. for 15 minutes. After the plate was centrifuged briefly, an aliquot of 10 μL of 2 mM α-ketoglutarate and 20 μM NADPH solution prepared in assay buffer was then added to each well and the reaction was maintained at 25° C. for 45 minutes. An aliquot of 10 μL of diaphorase solution (0.15 U/mL diaphorase and 30 µM Resazurin in assay buffer) was added to each well. The plate was maintained at 25° C. for 15 minutes and then read on a plate reader with excitation and emission wavelengths at 535 nm and 590 nm, respectively. The IC50 of a given compound was calculated by fitting the dose response curve of inhibition of NADPH consumption at a given concentration with the four parameter logistic equation.

[2] = biological target: IDH1-R132C recombinant protein (Homo sapiens (Human), UniProt O75874, R132C); test: IDH1-R132C enzymatic assay (inhibition of NADPH consumption, diaphorase/resazurin readout); assay type: biochemical; details: read-out: Enzyme IDH1 R132C IC50 (Range)
Description: as §1

[3] = tested on: HCT116 isogenic IDH1-R132H mutant cells; test: Cellular 2-HG assay using HCT116 mutant IDH1 cells (R132H), RapidFire mass spectrometry; assay type: cell-based; details: Homo sapiens, read-out: HCT116 IDH1 R132H IC50 (Range)
Description: (§2) Example 106—Cellular 2-HG assay using HCT116 mutant IDH1 cells
(§3) HCT116 isogenic IDH1-R132H and IDH1-R132C mutant cells were cultured in growth media (McCoy's 5 A, 10% fetal bovine serum, 1× antibiotic-antimycotic solution and 0.3 mg/mL G418) in 5% CO2 in an incubator at 37° C. To prepare the assay, cells were trypsinized and resuspended in assay media (McCoy's 5 A with no L-glutamine, 10% fetal bovine serum, 1× antibiotic-antimycotic solution and 0.3 mg/mL G418). An aliquot of 10,000 cells/100 μL was transferred to each well of a clear 96-well tissue culture plate. The cells were incubated in 5% CO2 at 37° C. in an incubator overnight to allow for proper cell attachment. An aliquot of 50 μL of compound containing assay media were then added to each well and the assay plate was kept in 5% CO2 at 37° C. in an incubator for 24 hours. The media was then removed from each well and 150 μL of a methanol/water mixture (80/20 v/v) was added to each well. The plates were kept at −80° C. freezer overnight to allow for complete cell lysis. An aliquot of 125 μL of extracted supernatant was analyzed by RapidFire high-throughout-mass spectrometry (Agilent) to determine the cellular 2-HG level. The IC50 of a given compound was calculated by fitting the dose response curve of cellular 2-HG inhibition at a given concentration with the four parameter logistic equation.

[4] = tested on: HCT116 isogenic IDH1-R132C mutant cells; test: Cellular 2-HG assay using HCT116 mutant IDH1 cells (R132C), RapidFire mass spectrometry; assay type: cell-based; details: Homo sapiens, read-out: HCT116 IDH1 R132C IC50 (Range)
Description: as §2, §3

[5] = HCT-116, cellular 2-HG level, HCT116 IDH1-R132H cells, 24 hours
[6] = HCT-116, cellular 2-HG level, HCT116 IDH1-R132C cells, 24 hours

IDH1-R132H recombinant protein, sequence (O75874 whole entry R132H): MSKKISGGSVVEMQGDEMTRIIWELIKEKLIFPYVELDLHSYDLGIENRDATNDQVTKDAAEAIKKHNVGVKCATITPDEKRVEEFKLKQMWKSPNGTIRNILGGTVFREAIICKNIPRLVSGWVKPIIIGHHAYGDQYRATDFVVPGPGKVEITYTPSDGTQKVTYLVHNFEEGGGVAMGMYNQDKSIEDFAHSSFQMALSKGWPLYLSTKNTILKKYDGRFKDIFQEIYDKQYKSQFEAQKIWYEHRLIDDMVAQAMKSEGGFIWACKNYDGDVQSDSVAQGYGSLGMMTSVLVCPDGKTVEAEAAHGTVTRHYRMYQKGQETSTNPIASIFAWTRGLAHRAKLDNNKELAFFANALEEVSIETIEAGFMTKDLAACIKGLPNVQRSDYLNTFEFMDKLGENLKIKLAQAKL
IDH1-R132C recombinant protein, sequence (O75874 whole entry R132C): as the sequence (O75874 whole entry R132H) above, with H132C counted along it

| Compound | IC50 [1] [nM] | IC50 [2] [nM] | IC50 [3, 5] [nM] | IC50 [4, 6] [nM] | IC50 ([3]; HCT-116, 24 h) [nM] | IC50 ([4]; HCT-116, 24 h) [nM] |
| --- | --- | --- | --- | --- | --- | --- |
| C[C@H](Nc1nccc(N2CCCS2(=O)=O)n1)c1cc2cc(Cl)ccc2[nH]c1=O [Compound I-12, (S)-6-Chloro-3-(1-((4-(1,1-dioxidoisothiazolidin-2-yl)pyrimidin-2-yl)amino)ethyl)quinolin-2(1H)-one] | 100 to 1000 | 1000 to 10000 | 100 to 1000 | 100 to 1000 |  |  |
| CC(Nc1nccc(N(C(C)C)S(C)(=O)=O)n1)c1cc2cc(Cl)ccc2[nH]c1=O (centres unmarked) [Compound I-20] | 100 to 1000 | 100 to 1000 | 100 to 1000 | 100 to 1000 |  |  |
| COC(=O)Nc1ccnc(N[C@@H](C)c2cc3cc(Cl)ccc3[nH]c2=O)n1 [Compound I-22, (S)-Methyl (2-((1-(6-chloro-2-oxo-1,2-dihydroquinolin-3-yl)ethyl)amino)pyrimidin-4-yl) carbamate] | < 100 | 100 to 1000 | < 100 | < 100 |  |  |
| CC(C)OC(=O)Nc1ccnc(N[C@@H](C)c2cc3cc(Cl)ccc3[nH]c2=O)n1 [Compound I-23, (S)-Isopropyl (2-((1-(6-chloro-2-oxo-1,2-dihydroquinolin-3-yl)ethyl)amino)pyrimidin-4-yl)carbamate] | 1000 to 10000 |  | 100 to 1000 | 100 to 1000 |  |  |
| C[C@H](Nc1ncc(C#N)c(N)n1)c1cc2cc(Cl)ccc2[nH]c1=O [Compound I-37] | 100 to 1000 |  | 100 to 1000 | 1000 to 10000 |  |  |
| C[C@H](Nc1ncc(C#N)c(C2CC2)n1)c1cc2cc(Cl)ccc2[nH]c1=O [Compound I-40, (S)-2-((1-(6-Chloro-2-oxo-1,2-dihydroquinolin-3-yl)ethyl)amino)-4-cyclopropylpyrimidine-5-carbonitrile] | < 100 |  | 1000 to 10000 | 100 to 1000 |  |  |
| CC(C)[C@H]1COC(=O)N1c1ccnc(N[C@@H](C)c2cc3cc(Cl)ccc3[nH]c2=O)n1 [Compound I-42, (S)-3-(2-(((S)-1-(6-Chloro-2-oxo-1,2-dihydroquinolin-3-yl)ethyl)amino)pyrimidin-4-yl)-4-isopropyloxazolidin-2-one] | < 100 | < 100 |  | < 100 |  |  |
| Cc1c(-c2ccnc(N[C@@H](C)c3cc4cc(Cl)ccc4[nH]c3=O)n2)cnn1C [Compound I-74] | 100 to 1000 |  | 100 to 1000 | 100 to 1000 |  |  |
| C[C@H](Nc1nccc(-c2ccnn2C2CCCCO2)n1)c1cc2cc(Cl)ccc2[nH]c1=O (some centres unmarked) [Compound I-79] | < 100 |  | 1000 to 10000 | 1000 to 10000 |  |  |
| Cc1cscc1-c1ccnc(N[C@@H](C)c2cc3cc(Cl)ccc3[nH]c2=O)n1 [Compound I-80] | < 100 |  | 100 to 1000 | 100 to 1000 |  |  |
| C[C@H](Nc1nccc(-c2cccn2C)n1)c1cc2cc(Cl)ccc2[nH]c1=O [Compound I-81] | < 100 |  | 100 to 1000 | 100 to 1000 |  |  |
| C[C@H](Nc1nccc(N2CCN(C)C2=O)n1)c1cc2cc(Cl)ccc2[nH]c1=O [Compound I-124] | 100 to 1000 |  | 100 to 1000 | 100 to 1000 |  |  |
| C[C@H](Nc1nccc(N2CCCC2=O)n1)c1cc2cc(Cl)ccc2[nH]c1=O [Compound I-138] | < 100 | 100 to 1000 |  |  |  |  |
| COc1nc(N[C@H](C)c2cc3cc(Cl)c(F)cc3[nH]c2=O)ncc1C#N [Compound I-141, (R)-2-((1-(6-chloro-7-fluoro-2-oxo-1,2-dihydroquinolin-3-yl)ethyl)amino)-4-methoxypyrimidine-5-carbonitrile] | > 10000 | > 10000 |  |  |  |  |
| COc1cc2[nH]c(=O)c([C@@H](C)Nc3ncc(C#N)c(OC)n3)cc2cc1Cl [Compound I-144, (R)-2-((1-(6-Chloro-7-methoxy-2-oxo-1,2-dihydroquinolin-3-yl)ethyl)amino)-4-methoxypyrimidine-5-carbonitrile] | 100 to 1000 | 1000 to 10000 |  |  |  |  |
| COc1cc2[nH]c(=O)c([C@H](C)Nc3nccc(N4CCOC4=O)n3)cc2cc1Cl [Compound I-147] | < 100 |  | < 100 | < 100 |  |  |
| COc1nc(NC(C)c2cc3cc(Cl)c(OCc4ccccn4)cc3[nH]c2=O)ncc1C#N (centres unmarked) [Compound I-150] | < 100 | < 100 |  |  |  |  |
| Cc1nc(N[C@@H](C)c2cc3cc(Cl)c(OCc4ccccn4)cc3[nH]c2=O)ncc1C#N [Compound I-153] | < 100 | < 100 |  | < 100 |  |  |
| COc1nc(N[C@@H](C)c2nc3cc(Cl)ccc3[nH]c2=O)ncc1C#N [Compound I-156, (S)-2-((1-(7-Chloro-3-oxo-3,4-dihydroquinoxalin-2-yl)ethyl)amino)-4-methoxy pyrimidine-5-carbonitrile] |  | 100 to 1000 |  |  | < 100 | 100 to 1000 |
| O=C1OCCN1c1ccnc(NC2(c3cc4cc(Cl)ccc4[nH]c3=O)CC2)n1 [Compound I-168] | 100 to 1000 | 1000 to 10000 |  |  |  |  |
| COc1nc(NC2(c3cc4cc(Cl)ccc4[nH]c3=O)CC2)ncc1C#N [Compound I-169, 2-((1-(6-Chloro-2-oxo-1,2-dihydroquinolin-3-yl)cyclopropyl)amino)-4-methoxypyrimidine-5-carbonitrile] | 100 to 1000 | 1000 to 10000 |  |  |  |  |
| CC(C)(Nc1nccc(N2CCOC2=O)n1)c1cc2cc(Cl)ccc2[nH]c1=O [Compound I-170] | 100 to 1000 |  | 100 to 1000 | 1000 to 10000 |  |  |
| COc1nc(NC(C)c2cc3cc(Cl)c(OCC4CC(F)(F)C4)cc3[nH]c2=O)ncc1C#N (centres unmarked) [Compound I-172, 2-((1-(6-chloro-7-((3,3-difluorocyclobutyl)methoxy)-2-oxo-1,2-dihydroquinolin-3-yl)ethyl)amino)-4-methoxypyrimidine-5-carbonitrile] | < 100 | 100 to 1000 |  |  |  |  |
| CC(C)n1cncc1-c1ccnc(N[C@@H](C)c2cc3cc(Cl)ccc3n(C)c2=O)n1 [Compound I-173, (S)-6-chloro-3-(1-((4-(1-isopropyl-1H-imidazol-5-yl)pyrimidin-2-yl)amino)ethyl)-1-methylquinolin-2(1H)-one] | < 100 | < 100 |  |  |  |  |
| COc1nc(N[C@H](C)c2cc3cc(Cl)ccc3[nH]c2=O)ncc1C#N [Compound I-174] | 1000 to 10000 | 1000 to 10000 |  |  |  |  |
| COc1nc(N[C@@H](C)c2cc3cc(Cl)c(OC(C)C)cc3[nH]c2=O)ncc1C#N [Compound I-175, (S)-2-((1-(6-chloro-7-isopropoxy-2-oxo-1,2-dihydroquinolin-3-yl)ethyl)amino)-4-methoxypyrimidine-5-carbonitrile] | < 100 | < 100 |  |  |  |  |
| COc1nc(N[C@@H](C)c2cc3cc(Cl)c(C4CC4)cc3[nH]c2=O)ncc1C#N [Compound I-176, (S)-2-((1-(6-chloro-7-cyclopropyl-2-oxo-1,2-dihydroquinolin-3-yl)ethyl)amino)-4-methoxypyrimidine-5-carbonitrile] | < 100 | 100 to 1000 |  |  |  |  |
| COc1nc(N[C@@H](C)c2cc3ncccc3[nH]c2=O)ncc1C#N [Compound I-177, (S)—4-methoxy-2-((1-(2-oxo-1,2-dihydro-1,5-naphthyridin-3-yl)ethyl)amino)pyrimidine-5-carbonitrile] | 1000 to 10000 | > 10000 |  |  |  |  |
| C[C@H](Nc1ncc(C#N)c(=O)[nH]1)c1cc2cc(Cl)ccc2[nH]c1=O [Compound I-178, (S)-2-((1-(6-chloro-2-oxo-1,2-dihydroquinolin-3-yl)ethyl)amino)-6-oxo-1,6-dihydropyrimidine-5-carbonitrile] | < 100 | 1000 to 10000 |  |  |  |  |
| C[C@H](Nc1nccc(-n2nnnc2C2CC2)n1)c1cc2cc(Cl)ccc2[nH]c1=O [Compound I-183, (S)-6-chloro-3-(1-((4-(5-cyclopropyl-1H-tetrazol-1-yl)pyrimidin-2-yl)amino)ethyl)quinolin-2(1H)-one] | < 100 | < 100 |  | 100 to 1000 |  |  |
